Consider 25 molecules from patent publication US20260226073A1 (AURIGENE ONCOLOGY LIMITED, priority 2023, published 2026).

Test [1] concerns the target T1, human recombinant CBL-b (human Biotin CBL-b recombinant protein a.a. 39-426) (Homo sapiens, UniProt Q13191).
T1 construct: human Biotin CBL-b recombinant protein a.a; 39-426; Biotin (biotinylated); made in house
Kind of test: Biochemical assay for CBL-b inhibition (ligand displacement TR-FRET). The test is classed as binding. As to conditions: 50 nM CBL-b, 0.3 μM Bodipy FL-Probe, read-out: IC50 (CBL-b inhibition, group). A digest of the protocol:
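Ligand-displacement TR-FRET: 0.3 μM Bodipy FL probe competes with compound for 50 nM biotin-CBL-b (aa 39-426) after a 60 min RT compound pre-incubation; terbium-streptavidin detection, 60 min each step. Dose-response sigmoidal fitting gave IC50 and % maximum inhibition.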
(In TR-FRET formats the signal depends on donor and acceptor labels being close together.)

Test [2] has as its system NFAT signaling pathway in Jurkat NFAT reporter cells. Kind of test: Jurkat NFAT reporter assay. Format: cell-based. As to conditions: Homo sapiens, 30 min with compound, then soluble anti-human CD3/CD28 antibody for 6 hours, luciferase readout, read-out: EC50 (Group). The procedure: A human T lymphocyte Jurkat reporter cell line was further used to assess activation of the nuclear factor of activated T-cells (NFAT) signaling pathway by Cbl-b inhibitors. The reporter cell line is a genetically engineered Jurkat T cell line that expresses a luciferase reporter driven by an NFAT-response element (NFAT-RE). The Cbl-b inhibitor was incubated with 1×10^5 Jurkat NFAT reporter cells per well for 30 minutes. Subsequently, cells were stimulated with soluble anti-human CD3/CD28 antibody for 6 hours resulting in NFAT-RE-mediated luminescence. The bioluminescent signal is detected and quantified using Bio-Glo™ Luciferase Assay System. Readouts were reported as fold change over baseline. Here, baseline was the measurement obtained from Jurkat NFAT reporter cells stimulated with anti-CD3 antibody and anti-CD28 antibody, where the cells were not incubated with a Cbl-b inhibitor.
Background: A reporter such as luciferase makes a cellular process visible.

T1 sequence (Q13191 39-426): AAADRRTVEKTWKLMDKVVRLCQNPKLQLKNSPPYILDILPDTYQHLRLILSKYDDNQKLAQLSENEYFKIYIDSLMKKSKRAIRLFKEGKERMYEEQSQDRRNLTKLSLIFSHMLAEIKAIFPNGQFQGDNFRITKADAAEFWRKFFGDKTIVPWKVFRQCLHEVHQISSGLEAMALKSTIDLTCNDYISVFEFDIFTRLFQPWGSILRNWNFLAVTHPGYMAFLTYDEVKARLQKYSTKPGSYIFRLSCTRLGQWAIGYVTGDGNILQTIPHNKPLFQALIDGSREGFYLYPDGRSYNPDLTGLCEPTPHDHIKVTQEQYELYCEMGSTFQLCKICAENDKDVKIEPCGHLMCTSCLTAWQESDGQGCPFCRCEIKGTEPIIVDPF

On to `Cn1cnnc1CC1(c2ccc3c(c2)C(=O)N(c2cc(CNCC4CC(F)(F)C4)cc(Cl)n2)C3)CC(C#N)C1` (centres unmarked) [Compound 227, 3-(2-(6-Chloro-4-((((3,3-difluorocyclobutyl)methyl)amino)methyl)pyridin-2-yl)-3-oxoisoindolin-5-yl)-3-((4-methyl-4H-1,2,4-triazol-3-yl)methyl)cyclobutane-1-carbo-nitrile], for which, in test [1], the IC50 is under 80 nM. For the same molecule, the EC50 in test [2] lay within 300 to 1000 nM.
In the case of `C[C@H]1CCCN(Cc2cc(Cl)nc(N3Cc4ccc(C5(Cc6nncn6C)CC(C#N)C5)cc4C3=O)c2)C1` (some centres unmarked) [Compound 85], the IC50 in test [1] is under 80 nM. For the same molecule, in test [2], the concentration for a half-maximal effect (EC50) is under 300 nM.
For `CC(NC(C)(C)C1CC1)c1cc(Cl)nc(N2Cc3ccc(C4(Cc5nncn5C)COC4)cc3C2=O)c1` (centres unmarked) [Compound 248], the IC50 in test [1] is under 80 nM. For the same molecule, the EC50 in test [2] was under 300 nM.
With `CCC1CCCN(Cc2cc(Cl)nc(N3Cc4ccc(C5(Cc6nncn6C)COC5)cc4C3=O)c2)C1` (centres unmarked) [Compound 148, 2-(6-Chloro-4-((3-ethylpiperidin-1-yl)methyl)pyridin-2-yl)-6-(3-((4-methyl-4H-1,2,4-triazol-3-yl)methyl)oxetan-3-yl)isoindolin-1-one], the IC50 in test [1] was under 80 nM. Besides, the EC50 in test [2] is under 300 nM.
On to `CC(Cc1nncn1C)c1ccc2c(c1)C(=O)N(c1cc(CN3C[C@H](C)C[C@H](C)C3)cc(Cl)n1)C2` (stereo partly drawn) [Compound 84, 2-(6-Chloro-4-(((3S,5R)-3,5-dimethylpiperidin-1-yl)methyl)pyridin-2-yl)-6-(1-(4-methyl-4H-1,2,4-triazol-3-yl)propan-2-yl)isoindolin-1-one], for which the IC50 in test [1] fell in the range of 80 to 300 nM. In addition, the EC50 in test [2] lay within 300 to 1000 nM.
Take `Cc1nc(N2Cc3ccc(-c4ccc(F)cc4-c4nncn4C)cc3C2=O)cc(CNCC2CC2)c1C(F)(F)F` [Compound 337, 2-(4-(((Cyclopropylmethyl)amino)methyl)-6-methyl-5-(trifluoromethyl)-pyridin-2-yl)-6-(4-fluoro-2-(4-methyl-4H-1,2,4-triazol-3-yl)phenyl)isoindolin-1-one]: the IC50 in test [1] is under 80 nM. The EC50 in test [2] is 1000 to 10000 nM.
In the case of `CC1CN(Cc2cc(N3Cc4ccc(C5(Cc6nncn6C)COC5)cc4C3=O)nc(C(F)(F)F)c2)CCC1(F)F` (centres unmarked) [Compound 28, 2-(4-((4,4-Difluoro-3-methylpiperidin-1-yl)methyl)-6-(trifluoromethyl)pyridin-2-yl)-6-(3-((4-methyl-4H-1,2,4-triazol-3-yl)methyl)oxetan-3-yl)isoindolin-1-one], the IC50 in test [1] lay within 80 to 300 nM. Besides, in test [2], the EC50 lay within 300 to 1000 nM.
For `C[C@H]1CCCN(Cc2cc(CC3CC3)cc(N3Cc4ccc(C5(Cc6nncn6C)COC5)cc4C3=O)c2)C1` [Compound 49, (S)-2-(3-(Cyclopropylmethyl)-5-((3-methylpiperidin-1-yl)methyl)phenyl)-6-(3-((4-methyl-4H-1,2,4-triazol-3-yl)methyl)oxetan-3-yl)isoindolin-1-one], the IC50 in test [1] fell in the range of 80 to 300 nM. Further, the EC50 in test [2] was 300 to 1000 nM.
In the same order, the values of `Cn1cnnc1CC1(c2ccc3c(c2)C(=O)N(c2cc(CNCC4CC4)cc(Cl)n2)C3)CCC1` [Compound 145, 2-(6-Chloro-4-(((cyclopropylmethyl)amino)methyl)pyridin-2-yl)-6-(1-((4-methyl-4H-1,2,4-triazol-3-yl)methyl)cyclobutyl)isoindolin-1-one] are under 80 nM and under 300 nM.
As for `C[C@@H](Cc1nncn1C)c1ccc2c(c1)C(=O)N(c1cc(CNCC3CC3)cc(Cl)n1)C2` (single isomer, unassigned) [Compound 160], the IC50 in test [1] is under 80 nM. In test [2], the EC50 was in the range of 300 to 1000 nM.
Regarding `Cc1cc(C(C)NCC2CC2)cc(N2Cc3ccc(-c4ccc(Cl)cc4-c4nncn4C)cc3C2=O)n1` (centres unmarked) [Compound 103, 6-(4-Chloro-2-(4-methyl-4H-1,2,4-triazol-3-yl)phenyl)-2-(4-(1-((cyclopropylmethyl)amino)ethyl)-6-methylpyridin-2-yl)isoindolin-1-one], the IC50 in test [1] was under 80 nM. Further, in test [2], the EC50 is under 300 nM.
On to `C[C@H]1CCCN(Cc2cccc(N3Cc4ccc(C5(Cc6nncn6C)COC5)cc4C3=O)c2)C1` [Compound 8, (S)-6-(3-((4-Methyl-4H-1,2,4-triazol-3-yl)methyl)oxetan-3-yl)-2-(3-((3-methyl-piperidin-1-yl)methyl)phenyl)isoindolin-1-one], for which, in test [1], the IC50 was in the range of 300 to 5000 nM. The concentration for a half-maximal effect (EC50) in test [2] lay within 1000 to 10000 nM.
On to `Cn1cnnc1CC1(c2ccc3c(c2)C(=O)N(c2cc(CNCC4(F)CCC4)cc(Cl)n2)C3)COC1` [Compound 185], for which, in test [1], the IC50 was under 80 nM. In test [2], the EC50 was in the range of 1000 to 10000 nM.
Turning to `Cc1cc(CNCC(C)(C)O)cc(N2Cc3ccc(-c4ccc(F)cc4-c4nncn4C)cc3C2=O)n1` [Compound 309, 6-(4-Fluoro-2-(4-methyl-4H-1,2,4-triazol-3-yl)phenyl)-2-(4-(((2-hydroxy-2-methylpropyl)amino)methyl)-6-methylpyridin-2-yl)isoindolin-1-one], the IC50 in test [1] is under 80 nM. In test [2], the EC50 is under 300 nM.
Take `Cc1ccc(-c2ccc3c(c2)C(=O)N(c2cc(CNCC4CC4)cc(C)n2)C3)c(-c2nncn2C)c1` [Compound 277, 2-(4-(((Cyclopropylmethyl)amino)methyl)-6-methylpyridin-2-yl)-6-(4-methyl-2-(4-methyl-4H-1,2,4-triazol-3-yl)phenyl)isoindolin-1-one]: in test [1], the IC50 is under 80 nM. Moreover, in test [2], the EC50 was in the range of 1000 to 10000 nM.
With `Cc1cc(CNCC2CC2)cc(N2Cc3ccc(-c4ccc(F)cc4-c4nccn4C)cc3C2=O)n1` [Compound 304], the IC50 in test [1] was under 80 nM. Also, the EC50 in test [2] was 1000 to 10000 nM.
Taken in the same sequence, the figures for `Cn1cnnc1CC1(c2ccc3c(c2)C(=O)N(c2cc(CN4CCC[C@H](C(F)(F)F)C4)cc(C(F)(F)F)n2)C3)COC1` [Compound 27, (S)-6-(3-((4-Methyl-4H-1,2,4-triazol-3-yl)methyl)oxetan-3-yl)-2-(6-(trifluoro-methyl)-4-((3-(trifluoromethyl)piperidin-1-yl)methyl)pyridin-2-yl)isoindolin-1-one] were under 80 nM and under 300 nM.
Take `Cn1cnnc1CC1(c2ccc3c(c2)C(=O)N(c2cc(CNCC4CC4(F)F)cc(Cl)n2)C3)CC(C#N)C1` (centres unmarked) [Compound 230, 3-(2-(6-Chloro-4-((((2,2-difluorocyclopropyl)methyl)amino)methyl)pyridin-2-yl)-3-oxoisoindolin-5-yl)-3-((4-methyl-4H-1,2,4-triazol-3-yl)methyl)cyclobutane-1-carbonitrile]: the IC50 in test [1] was under 80 nM. In test [2], the EC50 is 300 to 1000 nM.
In the case of `Cn1cnnc1CC1(c2ccc3c(c2)C(=O)N(c2cc(CNCC4CCC4)cc(Cl)n2)C3)CC(C#N)C1` (centres unmarked) [Compound 182, 3-(2-(6-Chloro-4-(((cyclobutylmethyl)amino)methyl)pyridin-2-yl)-3-oxoiso-indolin-5-yl)-3-((4-methyl-4H-1,2,4-triazol-3-yl)methyl)cyclobutane-1-carbonitrile], the IC50 in test [1] was under 80 nM. For the same molecule, the EC50 in test [2] was under 300 nM.
Taken in the same sequence, the figures for `Cc1nc(N2Cc3ccc(C4(Cc5nncn5C)COC4)cc3C2=O)cc(CNCC2CC2)c1F` [Compound 198] were under 80 nM and 1000 to 10000 nM.
Turning to `Cn1cnnc1CC1(c2ccc3c(c2)C(=O)N(c2cc(CN4CC5(CCC5)C4)cc(C(F)(F)F)n2)C3)COC1` [Compound 51, 2-(4-((2-Azaspiro[3.3]heptan-2-yl)methyl)-6-(trifluoromethyl)pyridin-2-yl)-6-(3-((4-methyl-4H-1,2,4-triazol-3-yl)methyl)oxetan-3-yl)isoindolin-1-one], the IC50 in test [1] lay within 300 to 5000 nM. Moreover, the EC50 in test [2] lay in the range of 1000 to 10000 nM.
`Cc1cc(CNCC2CC2(F)F)cc(N2Cc3ccc(C4(Cc5nncn5C)COC4)cc3C2=O)c1` (centres unmarked) [Compound 20, 2-(3-((((2,2-Difluorocyclopropyl)methyl)amino)methyl)-5-methylphenyl)-6-(3-((4-methyl-4H-1,2,4-triazol-3-yl)methyl)oxetan-3-yl)isoindolin-1-one]: the IC50 in test [1] was 80 to 300 nM. The EC50 in test [2] was 300 to 1000 nM.
Taken in the same sequence, the figures for `Cc1cc(CN2CCC[C@H](C)C2)cc(N2Cc3ccc(C4(Cc5nncn5C)COC4)cc3C2=O)n1` [Compound 26, (S)-2-(6-Methyl-4-((3-methylpiperidin-1-yl)methyl)pyridin-2-yl)-6-(3-((4-methyl-4H-1,2,4-triazol-3-yl)methyl)oxetan-3-yl)isoindolin-1-one] were under 80 nM and under 300 nM.
Take `Cn1cnnc1CC1(c2ccc3c(c2)C(=O)N(c2cc(CN4CC5CC5C4)cc(C(F)(F)F)n2)C3)COC1` (centres unmarked) [Compound 71, 2-(4-((3-Azabicyclo[3.1.0]hexan-3-yl)methyl)-6-(trifluoromethyl)pyridin-2-yl)-6-(3-((4-methyl-4H-1,2,4-triazol-3-yl)methyl)oxetan-3-yl)isoindolin-1-one]: the IC50 in test [1] lay in the range of 300 to 5000 nM. Also, the EC50 in test [2] lay in the range of 1000 to 10000 nM.
As for `Cc1cc(CNC(C)C2CC2)cc(N2Cc3ccc(-c4ccc(Cl)cc4-c4nncn4C)cc3C2=O)n1` (centres unmarked) [Compound 122, 6-(4-Chloro-2-(4-methyl-4H-1,2,4-triazol-3-yl)phenyl)-2-(4-(((1-cyclopropyl-ethyl)amino)methyl)-6-methylpyridin-2-yl)isoindolin-1-one], the IC50 in test [1] was under 80 nM. In test [2], the EC50 was under 300 nM.

Broadly, the IC50 is the concentration at which inhibition is half-maximal. As a reminder, the EC50 is the concentration at which the effect is half-maximal.
